Measurements as given in patent US11739093B2, “Substituted pyrazolopyrazines, imidazopyrazines and [1,2,4]triazolopyrazines as allosteric SHP2 inhibitors” (Revolution Medicines, Inc., priority 2017, dated 2023).

Target: SHP2 (Homo sapiens (Human), UniProt Q06124)
Assay: SHP2 Allosteric Inhibition Assay
Format: biochemical
Conditions: 0.2 nM SHP2 with 0.5 μM Activating Peptide 1 or 2; surrogate substrate DiFMUP; prompt fluorescence, kinetic read
From the text: Without wishing to be bound by theory, SHP is allosterically activated through binding of bis-tyrosyl-phosphorylated peptides to its Src Homology 2 (SH2) domains. The latter activation step leads to the release of the auto-inhibitory interface of SHP2, which in turn renders the SHP2 protein tyrosine phosphatase (PTP) active and available for substrate recognition and reaction catalysis. The catalytic activity of SHP2 was monitored using the surrogate substrate DiFMUP in a prompt fluorescence assay format.
The phosphatase reactions were performed at room temperature in 96-well black polystyrene plate, flat bottom, non-binding surface (Corning, Cat #3650) using a final reaction volume of 100 μL and the following assay buffer conditions: 50 mM HEPES, pH 7.2, 100 mM NaCl, 0.5 mM EDTA, 0.05% P-20, 1 mM DTT.
The inhibition of SHP2 by compounds of the disclosure (concentrations varying from 0.00005-10 μM) was monitored using an assay in which 0.2 nM of SHP2 was incubated with 0.5 μM of Activating Peptide 1 (sequence: H2N-LN(pY)IDLDLV(dPEG8)LST(pY)ASINFQK-amide) or Activating Peptide 2 (sequence: H2N-LN(pY)AQLWHA(dPEG8)LTI(pY)ATIRRF-amide). After 30-60- minutes incubation at 25° C., the surrogate substrate DiFMUP (Invitrogen, Cat #D6567) was added to the reaction and activity was determined by a kinetic read using a microplate reader (Envision, Perkin-Elmer or Spectramax M5, Molecular Devices). The excitation and emission wavelengths were 340 nm and 450 nm, respectively. Initial rates were determined from a linear fit of the data, and the inhibitor dose response curves were analyzed using normalized IC50 regression curve fitting with control based normalization.

IC50 [nM]	Structure (SMILES)
340	CC1(N)CCN(c2ncc(Sc3ccnc(N)c3Cl)c3nsnc23)CC1 [Compound 15, 4-((4-(4-amino-4-methylpiperidin-1-yl)-[1,2,5]thiadiazolo[3,4-c]pyridin-7-yl)thio)-3-chloropyridin-2-amine]
1100	Cc1nc(N2CCC3(CC2)CO[C@@H](C)[C@H]3N)c2nccn2c1Sc1ccnc(N)c1Cl [Compound 6, (3S,4S)-8-{5-[(2-amino-3-chloropyridin-4-yl)sulfanyl]-6-methylimidazo[1,2-a]pyrazin-8-yl}-3-methyl-2-oxa-8-azaspiro[4.5]decan-4-amine]
83	C[C@@H]1OCC2(CCN(c3ncc(Sc4ccnc(N)c4Cl)c4ncncc34)CC2)[C@@H]1N [Compound 16, (3S,4S)-8-{8-[(2-amino-3-chloropyridin-4-yl)sulfanyl]pyrido[4,3-d]pyrimidin-5-yl}-3-methyl-2-oxa-8-azaspiro[4.5]decan-4-amine]
190	Cc1nc(N2CCC(C)(N)CC2)c2cncn2c1-c1cccc(Cl)c1Cl [Compound 2, 1-(5-(2,3-dichlorophenyl)-6-methylimidazo[1,5-a]pyrazin-8-yl)-4-methylpiperidin-4-amine]
